Activity calls are given as the source filed them. The calls are words filed in the database; no cut-off is given here.
Columns and labels:
[1] = target: Protein cereblon/Cyclin-dependent kinase 4 (Mus musculus) (UniProt P30285+Q8C7D2); experiment: Protac activity at CRBN/CDK4 in mouse B16-F10 cells assessed as induction of CDK4 degradation at 0.05 uM incubated for 24 hrs by Western blot analysis; assay type: cell-based
[2] = target: Protein cereblon/Cyclin-dependent kinase 6 (Mus musculus) (UniProt Q8C7D2+Q64261); experiment: Protac activity at CRBN/CDK6 in mouse B16-F10 cells assessed as induction of CDK4 degradation at 0.05 uM incubated for 24 hrs by Western blot analysis; assay type: cell-based
B16-F10 [3] = experiment: Cytotoxicity against mouse B16-F10 cells assessed as inhibition of cell growth incubated for 72 hrs by CCK-8 assay; assay type: functional, cell-based; conditions: B16-F10, 72 h
[4] = target: Heat shock protein HSP 90-alpha (Homo sapiens, UniProt P07900); experiment: Binding affinity to CM5 sensor chip immobilized human HSP90alpha assessed as dissociation constant by SPR analysis
A-375 = experiment: Cytotoxicity against human A-375 cells assessed as inhibition of cell growth incubated for 72 hrs by CCK-8 assay; assay type: functional, cell-based; conditions: A-375, 72 h
A549 = experiment: Cytotoxicity against human A549 cells assessed as inhibition of cell growth incubated for 72 hrs by CCK-8 assay; assay type: functional, cell-based; conditions: A549, 72 h
MDA-MB-231 = experiment: Cytotoxicity against human MDA-MB-231 cells assessed as inhibition of cell growth incubated for 72 hrs by CCK-8 assay; assay type: functional, cell-based; conditions: MDA-MB-231, 72 h
[5] = target: HSP90/Cyclin-dependent kinase 6 (Mus musculus, UniProt P07901+P11499+Q64261); experiment: HEMTAC activity at HSP90/CDK6 in mouse B16-F10 cells assessed as induction of […] degradation incubated for 24 hrs by Western blot analysis; assay type: cell-based
[6] = target: HSP90/Cyclin-dependent kinase 4 (Mus musculus, UniProt P07901+P11499+P30285); experiment: HEMTAC activity at HSP90/CDK4 in mouse B16-F10 cells assessed as induction of CDK4 degradation incubated for 24 hrs by Western blot analysis; assay type: cell-based
HepG2 = experiment: Cytotoxicity against human HepG2 cells assessed as inhibition of cell growth incubated for 72 hrs by CCK-8 assay; assay type: functional, cell-based; conditions: HepG2, 72 h
HFF-1 = experiment: Cytotoxicity against human HFF-1 cells assessed as reduction of cell viability incubated for 72 hrs by CCK-8 assay; assay type: toxicity, cell-based; conditions: hff-1, 72 h
[7] = target: HSP90/Cyclin-dependent kinase 4 (Mus musculus) (UniProt P30285+P07901+P11499); experiment: HEMTAC activity at HSP90/CDK4 in mouse B16-F10 cells assessed as induction of CDK4 degradation at 0.01 to 1 uM measured after 24 hrs by Western blot analysis; assay type: cell-based; conditions: dose 0.01-1 µM
[8] = target: HSP90/Cyclin-dependent kinase 6 (Mus musculus) (UniProt P07901+Q64261+P11499); experiment: HEMTAC activity at HSP90/CDK6 in mouse B16-F10 cells assessed as induction of […] degradation at 0.01 to 1 uM measured after 24 hrs by Western blot analysis; assay type: cell-based; conditions: dose 0.01-1 µM
[9] = Acute toxicity in zebra fish embryos incubated for 72 hrs; set-up: species or system Danio rerio; conditions: zebrafish
B16-F10 [10] = experiment: Induction of apoptosis in mouse B16-F10 cells assessed as early apoptotic cells at 250 nM incubated for 48 hrs by Annexin V-FITC/PI staining based flow cytometry analysis (reference value: 3.42%); assay type: functional
B16-F10 [11] = experiment: Induction of apoptosis in mouse B16-F10 cells assessed as dead cells at 250 nM incubated for 48 hrs by Annexin V-FITC/PI staining based flow cytometry analysis (reference value: 1.75%); assay type: functional
B16-F10 [12] = experiment: Induction of cell cycle arrest in mouse B16-F10 cells assessed as accumulation of cells at G1 phase at 250 nM incubated for 24 hrs by RNase/PI staining based flow cytometry analysis (reference value: 68.89%); assay type: functional
B16-F10 [13] = experiment: Induction of cell cycle arrest in mouse B16-F10 cells assessed as accumulation of cells at G1 phase at 125 nM incubated for 24 hrs by RNase/PI staining based flow cytometry analysis (reference value: 68.89%); assay type: functional
B16-F10 [14] = experiment: Induction of cell cycle arrest in mouse B16-F10 cells assessed as accumulation of cells at S phase at 250 nM incubated for 24 hrs by RNase/PI staining based flow cytometry analysis (reference value: 12.45%); assay type: functional
B16-F10 [15] = experiment: Induction of apoptosis in mouse B16-F10 cells assessed as early apoptotic cells at 125 nM incubated for 48 hrs by Annexin V-FITC/PI staining based flow cytometry analysis (reference value: 3.42%); assay type: functional
B16-F10 [16] = experiment: Induction of apoptosis in mouse B16-F10 cells assessed as live cells at 125 nM incubated for 48 hrs by Annexin V-FITC/PI staining based flow cytometry analysis (reference value: 92.85 %); assay type: functional
B16-F10 [17] = experiment: Induction of apoptosis in mouse B16-F10 cells assessed as live cells at 250 nM incubated for 48 hrs by Annexin V-FITC/PI staining based flow cytometry analysis (reference value: 92.85 %); assay type: functional
B16-F10 [18] = experiment: Induction of apoptosis in mouse B16-F10 cells assessed as late apoptotic cells at 250 nM incubated for 48 hrs by Annexin V-FITC/PI staining based flow cytometry analysis (reference value: 1.97%); assay type: functional
B16-F10 [19] = experiment: Induction of apoptosis in mouse B16-F10 cells assessed as late apoptotic cells at 125 nM incubated for 48 hrs by Annexin V-FITC/PI staining based flow cytometry analysis (reference value: 1.97%); assay type: functional
B16-F10 [20] = experiment: Induction of cell cycle arrest in mouse B16-F10 cells assessed as accumulation of cells at G2 phase at 125 nM incubated for 24 hrs by RNase/PI staining based flow cytometry analysis (reference value: 16.13%); assay type: functional
B16-F10 [21] = experiment: Induction of cell cycle arrest in mouse B16-F10 cells assessed as accumulation of cells at S phase at 125 nM incubated for 24 hrs by RNase/PI staining based flow cytometry analysis (reference value: 12.45%); assay type: functional
B16-F10 [22] = experiment: Induction of cell cycle arrest in mouse B16-F10 cells assessed as accumulation of cells at G2 phase at 250 nM incubated for 24 hrs by RNase/PI staining based flow cytometry analysis (reference value: 16.13%); assay type: functional
B16-F10 [23] = experiment: Induction of apoptosis in mouse B16-F10 cells assessed as dead cells at 125 nM incubated for 48 hrs by Annexin V-FITC/PI staining based flow cytometry analysis (reference value: 1.75%); assay type: functional
[24] = Toxicity in C57BL/6J mouse implanted with mouse B16-F10 cells at 20 mg/kg, ip administered once daily for 2 weeks and measured every 2 days; assay type: organism-based; conditions: in vivo, 336 h

Sequence of Protein cereblon/Cyclin-dependent kinase 4 (Mus musculus) (P30285 whole entry, looked up): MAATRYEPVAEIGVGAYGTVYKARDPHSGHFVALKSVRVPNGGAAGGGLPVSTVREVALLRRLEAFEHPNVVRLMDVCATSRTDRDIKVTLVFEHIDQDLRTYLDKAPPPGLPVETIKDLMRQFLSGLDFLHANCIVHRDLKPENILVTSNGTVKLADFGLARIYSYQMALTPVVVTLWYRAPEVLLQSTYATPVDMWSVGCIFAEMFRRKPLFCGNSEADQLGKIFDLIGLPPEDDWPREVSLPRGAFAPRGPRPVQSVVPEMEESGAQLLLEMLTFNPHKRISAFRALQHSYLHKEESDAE
Sequence of Protein cereblon/Cyclin-dependent kinase 4 (Mus musculus) (Q8C7D2 whole entry, looked up): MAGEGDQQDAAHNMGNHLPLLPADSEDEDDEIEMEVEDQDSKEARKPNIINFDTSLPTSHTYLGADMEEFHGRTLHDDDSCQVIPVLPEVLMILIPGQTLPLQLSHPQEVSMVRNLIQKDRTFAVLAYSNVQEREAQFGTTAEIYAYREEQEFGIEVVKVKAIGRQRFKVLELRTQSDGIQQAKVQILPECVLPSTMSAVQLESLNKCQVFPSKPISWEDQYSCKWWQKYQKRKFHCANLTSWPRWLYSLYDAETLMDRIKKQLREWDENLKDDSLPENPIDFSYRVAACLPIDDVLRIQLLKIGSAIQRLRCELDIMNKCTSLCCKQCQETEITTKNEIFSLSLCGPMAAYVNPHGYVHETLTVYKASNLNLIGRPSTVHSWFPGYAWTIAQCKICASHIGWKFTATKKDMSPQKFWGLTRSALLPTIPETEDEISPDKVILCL

SMILES	Kd [4]	EC50 [5]	EC50 [6]	IC50 (B16-F10 [3])	IC50 (A-375)	IC50 (A549)	IC50 (MDA-MB-231)	IC50 (HepG2)	Activity (HFF-1)	other results
CC(=O)c1c(C)c2cnc(Nc3ccc(N4CCN(CCCCNC(=O)COc5cccc6c5C(=O)N(C5CCC(=O)NC5=O)C6=O)CC4)cn3)nc2n(C2CCCC2)c1=O (configuration not stated)	–	–	–	–	–	–	–	–	–	Activity [1]: Active; Activity [2]: Active
COc1c(C)cnc(Cn2cc(C#CCCn3cc(CNC(=O)CN4CCN(c5ccc(Nc6ncc7c(C)c(C(C)=O)c(=O)n(C8CCCC8)c7n6)nc5)CC4)nn3)c3c(Cl)nc(NC(C)=O)nc32)c1C	–	–	–	–	–	–	–	–	–	Activity [7]: inactive; Activity [8]: inactive
COc1c(C)cnc(Cn2cc(C#CCCn3cc(C(=O)NCCOCCOCCNC(=O)CN4CCN(c5ccc(Nc6ncc7c(C)c(C(C)=O)c(=O)n(C8CCCC8)c7n6)nc5)CC4)nn3)c3c(Cl)nc(N)nc32)c1C	18.7 nM	245 nM	268 nM	1000 nM	1840 nM	3550 nM	1140 nM	2540 nM	Non-Toxic	–
COc1c(C)cnc(Cn2cc(C#CCCn3cc(C(=O)N4CCN(c5ccc(Nc6ncc7c(C)c(C(C)=O)c(=O)n(C8CCCC8)c7n6)nc5)CC4)nn3)c3c(Cl)nc(N)nc32)c1C	460 nM	105 nM	110 nM	546 nM	293 nM	2440 nM	> 10000 nM	1710 nM	Non-Toxic	–
CC(=O)c1c(C)c2cnc(Nc3ccc(N4CCNCC4)cn3)nc2n(C2CCCC2)c1=O [PALBOCICLIB]	–	–	–	> 10000 nM	> 10000 nM	> 10000 nM	> 10000 nM	> 10000 nM	Non-Toxic	LC50 at 72 h [9]: > 100000 nM; Activity (B16-F10 [10]): 2.53%; Activity (B16-F10 [11]): 2.84%; Activity (B16-F10 [12]): 74.4%; Activity (B16-F10 [13]): 72.84%; Activity (B16-F10 [14]): 9.98%; Activity (B16-F10 [15]): 2.55%; Activity (B16-F10 [16]): 86.8%; Activity (B16-F10 [17]): 89.12%; Activity (B16-F10 [18]): 5.51%; Activity (B16-F10 [19]): 5.31%; Activity (B16-F10 [20]): 13.57%; Activity (B16-F10 [21]): 13.29%; Activity (B16-F10 [22]): 15.63%; Activity (B16-F10 [23]): 5.34%
COc1c(C)cnc(Cn2cnc3c(Cl)nc(N)nc32)c1C [BIIB021]	–	–	–	176 nM	253 nM	134 nM	339 nM	113 nM	Toxic	LC50 at 72 h [9]: < 1000 nM; Activity (B16-F10 [10]): 16.92%; Activity (B16-F10 [11]): 2.26%; Activity (B16-F10 [12]): 77.76%; Activity (B16-F10 [13]): 73.13%; Activity (B16-F10 [14]): 2.62%; Activity (B16-F10 [15]): 13.64%; Activity (B16-F10 [16]): 78.06%; Activity (B16-F10 [17]): 68.27%; Activity (B16-F10 [18]): 12.55%; Activity (B16-F10 [19]): 6.27%; Activity (B16-F10 [20]): 14.09%; Activity (B16-F10 [21]): 12.26%; Activity (B16-F10 [22]): 18.95%; Activity [24]: Non-Toxic; Activity (B16-F10 [23]): 2.03%

The next lines start with results.

Kd [4]	EC50 [5]	EC50 [6]	SMILES	IC50 (B16-F10 [3])	IC50 (A-375)	IC50 (A549)	IC50 (MDA-MB-231)	IC50 (HepG2)	Activity (HFF-1)	other results
8.39 nM	88 nM	96 nM	COc1c(C)cnc(Cn2cc(C#CCCNC(=O)CN3CCN(c4ccc(Nc5ncc6c(C)c(C(C)=O)c(=O)n(C7CCCC7)c6n5)nc4)CC3)c3c(Cl)nc(N)nc32)c1C	821 nM	906 nM	607 nM	> 10000 nM	547 nM	Non-Toxic	–
306 nM	478 nM	> 500 nM	COc1c(C)cnc(Cn2cc(C#CCCn3cc(C(=O)NCCOCCNC(=O)CN4CCN(c5ccc(Nc6ncc7c(C)c(C(C)=O)c(=O)n(C8CCCC8)c7n6)nc5)CC4)nn3)c3c(Cl)nc(N)nc32)c1C	7880 nM	6340 nM	8890 nM	1850 nM	3760 nM	Non-Toxic	–
67.5 nM	325 nM	446 nM	COc1c(C)cnc(Cn2cc(C#CCCn3cc(C(=O)NCCNC(=O)CN4CCN(c5ccc(Nc6ncc7c(C)c(C(C)=O)c(=O)n(C8CCCC8)c7n6)nc5)CC4)nn3)c3c(Cl)nc(N)nc32)c1C	6820 nM	7640 nM	> 10000 nM	3630 nM	> 10000 nM	Non-Toxic	–

Source: ChEMBL document CHEMBL5316290, “Targeted Protein Degradation Induced by HEMTACs Based on HSP90” (J Med Chem, 2023)
